Some targets named below: Histamine H3 receptor (Homo sapiens, UniProt Q9Y5N1); D(3) dopamine receptor (Homo sapiens, UniProt P35462); D(1A) dopamine receptor (Homo sapiens, UniProt P21728).
The target of another test is T1, Progesterone receptor (Homo sapiens, UniProt P06401).
T1 sequence (P06401 whole entry): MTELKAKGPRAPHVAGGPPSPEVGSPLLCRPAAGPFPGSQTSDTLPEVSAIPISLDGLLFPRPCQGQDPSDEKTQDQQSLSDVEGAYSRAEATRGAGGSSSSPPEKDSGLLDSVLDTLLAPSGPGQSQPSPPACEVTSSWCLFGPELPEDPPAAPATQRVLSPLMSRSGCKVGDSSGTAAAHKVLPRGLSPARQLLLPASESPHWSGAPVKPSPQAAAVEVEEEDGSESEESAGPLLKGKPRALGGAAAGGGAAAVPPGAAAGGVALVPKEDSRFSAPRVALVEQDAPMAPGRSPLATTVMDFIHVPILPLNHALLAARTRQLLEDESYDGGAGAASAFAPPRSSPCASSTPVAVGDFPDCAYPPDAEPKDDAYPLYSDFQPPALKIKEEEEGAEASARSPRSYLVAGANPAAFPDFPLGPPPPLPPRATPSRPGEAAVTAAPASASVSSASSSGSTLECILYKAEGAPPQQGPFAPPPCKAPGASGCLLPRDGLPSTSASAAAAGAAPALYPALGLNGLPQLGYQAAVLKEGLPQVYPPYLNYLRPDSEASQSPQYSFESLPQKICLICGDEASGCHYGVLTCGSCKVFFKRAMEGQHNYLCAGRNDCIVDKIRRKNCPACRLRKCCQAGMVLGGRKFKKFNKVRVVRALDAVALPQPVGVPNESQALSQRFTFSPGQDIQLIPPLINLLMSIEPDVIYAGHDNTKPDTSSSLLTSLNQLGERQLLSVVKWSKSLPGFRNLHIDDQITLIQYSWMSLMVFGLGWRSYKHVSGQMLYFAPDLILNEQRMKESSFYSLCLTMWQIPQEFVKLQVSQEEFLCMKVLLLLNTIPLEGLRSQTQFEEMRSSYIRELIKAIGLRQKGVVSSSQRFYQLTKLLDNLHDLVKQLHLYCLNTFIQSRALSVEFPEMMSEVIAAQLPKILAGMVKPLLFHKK

The target of test [1] is T2, 5-hydroxytryptamine receptor 1A (Homo sapiens, UniProt P08908).
T2 sequence (P08908 whole entry): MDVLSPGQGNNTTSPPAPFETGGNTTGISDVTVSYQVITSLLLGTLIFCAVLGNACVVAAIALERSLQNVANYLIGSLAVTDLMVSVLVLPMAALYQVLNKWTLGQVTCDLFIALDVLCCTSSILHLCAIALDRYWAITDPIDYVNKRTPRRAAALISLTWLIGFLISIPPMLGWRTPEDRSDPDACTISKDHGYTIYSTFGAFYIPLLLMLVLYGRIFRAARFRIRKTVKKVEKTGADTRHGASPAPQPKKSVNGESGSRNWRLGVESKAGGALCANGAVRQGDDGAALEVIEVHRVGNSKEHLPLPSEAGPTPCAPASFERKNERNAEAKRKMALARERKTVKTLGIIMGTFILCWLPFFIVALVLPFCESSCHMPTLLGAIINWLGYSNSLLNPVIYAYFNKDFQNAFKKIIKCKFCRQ

Test [2] concerns the target Sodium-dependent noradrenaline transporter (Homo sapiens, UniProt P23975).
The target of test [3] is T3, Thromboxane A2 receptor (Homo sapiens, UniProt P21731).
T3 sequence (P21731 whole entry): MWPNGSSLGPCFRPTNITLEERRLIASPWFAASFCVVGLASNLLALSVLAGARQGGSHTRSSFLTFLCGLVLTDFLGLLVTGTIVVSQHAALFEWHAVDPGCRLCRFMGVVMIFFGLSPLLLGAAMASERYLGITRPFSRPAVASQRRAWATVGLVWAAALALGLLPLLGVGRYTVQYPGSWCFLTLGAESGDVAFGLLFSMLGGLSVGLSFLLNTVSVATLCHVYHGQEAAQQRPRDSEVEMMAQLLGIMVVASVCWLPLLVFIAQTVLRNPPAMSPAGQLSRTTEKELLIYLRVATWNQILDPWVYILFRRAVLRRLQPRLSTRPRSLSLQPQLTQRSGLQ
Format: functional, cell-based.

The target in test [4] is cGMP-inhibited 3',5'-cyclic phosphodiesterase 3A (Homo sapiens, UniProt Q14432). Format: functional.
Chain of cGMP-inhibited 3',5'-cyclic phosphodiesterase 3A (Q14432 whole entry): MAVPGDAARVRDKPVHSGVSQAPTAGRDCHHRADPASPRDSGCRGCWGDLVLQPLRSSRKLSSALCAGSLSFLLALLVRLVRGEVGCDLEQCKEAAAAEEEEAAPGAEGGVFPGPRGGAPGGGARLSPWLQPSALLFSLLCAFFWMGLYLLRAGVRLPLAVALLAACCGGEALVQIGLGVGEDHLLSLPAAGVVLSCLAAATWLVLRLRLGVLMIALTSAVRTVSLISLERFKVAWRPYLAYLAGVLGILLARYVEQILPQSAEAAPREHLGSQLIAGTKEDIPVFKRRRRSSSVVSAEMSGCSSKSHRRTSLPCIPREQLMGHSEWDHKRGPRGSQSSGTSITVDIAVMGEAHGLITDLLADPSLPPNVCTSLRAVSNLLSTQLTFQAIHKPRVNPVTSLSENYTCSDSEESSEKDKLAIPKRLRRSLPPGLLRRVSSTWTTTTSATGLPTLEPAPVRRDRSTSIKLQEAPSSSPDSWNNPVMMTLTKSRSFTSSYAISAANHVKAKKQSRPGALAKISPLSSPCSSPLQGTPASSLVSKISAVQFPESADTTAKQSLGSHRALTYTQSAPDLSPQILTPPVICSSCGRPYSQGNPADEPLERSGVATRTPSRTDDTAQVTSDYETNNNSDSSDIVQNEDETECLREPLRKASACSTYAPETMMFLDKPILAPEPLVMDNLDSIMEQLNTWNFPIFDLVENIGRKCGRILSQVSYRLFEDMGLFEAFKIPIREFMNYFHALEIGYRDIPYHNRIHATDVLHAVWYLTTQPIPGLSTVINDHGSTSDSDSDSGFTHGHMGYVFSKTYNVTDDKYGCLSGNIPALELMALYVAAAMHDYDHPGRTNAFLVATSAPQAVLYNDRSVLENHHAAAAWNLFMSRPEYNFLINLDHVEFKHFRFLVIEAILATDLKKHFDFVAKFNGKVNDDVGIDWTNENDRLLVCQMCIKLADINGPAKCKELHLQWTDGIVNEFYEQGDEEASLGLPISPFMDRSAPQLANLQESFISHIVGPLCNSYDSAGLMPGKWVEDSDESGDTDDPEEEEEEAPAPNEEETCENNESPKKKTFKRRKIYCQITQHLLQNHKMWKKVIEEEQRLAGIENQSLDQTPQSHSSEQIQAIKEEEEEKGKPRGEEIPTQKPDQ
Test [5] concerns the target 3',5'-cyclic-AMP phosphodiesterase 4A (Homo sapiens, UniProt P27815). Format: functional.
The target in test [6] is 5-hydroxytryptamine receptor 2B (Homo sapiens, UniProt P41595). The test is classed as functional, cell-based.
Chain of 5-hydroxytryptamine receptor 2B (P41595 whole entry): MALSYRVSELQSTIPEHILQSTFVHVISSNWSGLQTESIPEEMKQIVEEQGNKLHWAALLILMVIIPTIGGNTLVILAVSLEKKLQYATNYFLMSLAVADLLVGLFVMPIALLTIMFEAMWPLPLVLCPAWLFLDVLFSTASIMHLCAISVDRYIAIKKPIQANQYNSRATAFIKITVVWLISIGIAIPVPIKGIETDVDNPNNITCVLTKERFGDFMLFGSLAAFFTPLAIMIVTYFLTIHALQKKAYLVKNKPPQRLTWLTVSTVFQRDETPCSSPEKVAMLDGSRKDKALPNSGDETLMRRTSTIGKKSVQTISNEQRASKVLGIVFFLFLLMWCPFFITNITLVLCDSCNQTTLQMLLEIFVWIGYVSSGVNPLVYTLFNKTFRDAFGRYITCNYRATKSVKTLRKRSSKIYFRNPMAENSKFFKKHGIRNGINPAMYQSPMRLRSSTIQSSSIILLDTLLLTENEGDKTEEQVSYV
A further test concerns the target Acetylcholinesterase (Homo sapiens, UniProt P22303). The test is classed as functional.
Test [7] has as its target Prostaglandin G/H synthase 1 (Homo sapiens, UniProt P23219). The test is classed as functional.
The target of test [8] is T4, Alpha-2A adrenergic receptor (Homo sapiens, UniProt P08913).
T4 sequence (P08913 whole entry): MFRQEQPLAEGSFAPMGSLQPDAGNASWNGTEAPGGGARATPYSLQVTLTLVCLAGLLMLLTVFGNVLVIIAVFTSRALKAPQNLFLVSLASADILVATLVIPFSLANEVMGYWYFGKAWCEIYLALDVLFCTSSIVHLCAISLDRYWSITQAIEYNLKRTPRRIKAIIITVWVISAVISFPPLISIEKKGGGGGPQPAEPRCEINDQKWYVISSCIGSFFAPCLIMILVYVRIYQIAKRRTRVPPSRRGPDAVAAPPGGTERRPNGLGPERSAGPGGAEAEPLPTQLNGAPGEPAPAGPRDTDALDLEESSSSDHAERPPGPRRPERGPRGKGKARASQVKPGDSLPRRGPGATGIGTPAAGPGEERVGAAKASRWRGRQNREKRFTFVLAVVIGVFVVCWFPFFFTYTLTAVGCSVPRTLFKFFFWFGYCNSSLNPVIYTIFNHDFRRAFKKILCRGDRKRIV

Test [9] deals with T3, Thromboxane A2 receptor. Format: functional, cell-based. This is another data set of the same source.
Further: assay procedure not described here.

Chain of 3',5'-cyclic-AMP phosphodiesterase 4A (P27815 whole entry): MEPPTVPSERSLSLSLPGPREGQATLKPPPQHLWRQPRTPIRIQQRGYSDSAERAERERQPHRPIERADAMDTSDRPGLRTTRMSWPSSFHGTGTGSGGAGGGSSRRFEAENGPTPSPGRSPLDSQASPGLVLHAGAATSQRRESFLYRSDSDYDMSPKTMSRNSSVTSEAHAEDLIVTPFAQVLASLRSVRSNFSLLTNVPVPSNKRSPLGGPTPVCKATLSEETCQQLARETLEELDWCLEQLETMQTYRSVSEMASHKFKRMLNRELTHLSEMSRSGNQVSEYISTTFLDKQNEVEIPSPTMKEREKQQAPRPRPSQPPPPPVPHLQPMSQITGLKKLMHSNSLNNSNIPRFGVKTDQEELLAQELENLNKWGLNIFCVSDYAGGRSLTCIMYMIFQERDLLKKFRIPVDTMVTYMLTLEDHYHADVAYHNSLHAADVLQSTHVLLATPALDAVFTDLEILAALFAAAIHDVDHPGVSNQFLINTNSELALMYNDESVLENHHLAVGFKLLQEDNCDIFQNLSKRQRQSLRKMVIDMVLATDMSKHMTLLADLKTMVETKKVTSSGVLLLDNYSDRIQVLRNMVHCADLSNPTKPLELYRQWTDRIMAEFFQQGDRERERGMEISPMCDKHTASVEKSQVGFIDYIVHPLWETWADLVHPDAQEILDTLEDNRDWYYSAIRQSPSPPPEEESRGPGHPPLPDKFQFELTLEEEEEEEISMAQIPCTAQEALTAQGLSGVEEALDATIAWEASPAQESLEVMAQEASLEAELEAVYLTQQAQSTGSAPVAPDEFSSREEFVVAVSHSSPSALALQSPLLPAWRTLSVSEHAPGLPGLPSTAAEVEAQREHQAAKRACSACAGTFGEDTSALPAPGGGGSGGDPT
Chain of Acetylcholinesterase (P22303 whole entry): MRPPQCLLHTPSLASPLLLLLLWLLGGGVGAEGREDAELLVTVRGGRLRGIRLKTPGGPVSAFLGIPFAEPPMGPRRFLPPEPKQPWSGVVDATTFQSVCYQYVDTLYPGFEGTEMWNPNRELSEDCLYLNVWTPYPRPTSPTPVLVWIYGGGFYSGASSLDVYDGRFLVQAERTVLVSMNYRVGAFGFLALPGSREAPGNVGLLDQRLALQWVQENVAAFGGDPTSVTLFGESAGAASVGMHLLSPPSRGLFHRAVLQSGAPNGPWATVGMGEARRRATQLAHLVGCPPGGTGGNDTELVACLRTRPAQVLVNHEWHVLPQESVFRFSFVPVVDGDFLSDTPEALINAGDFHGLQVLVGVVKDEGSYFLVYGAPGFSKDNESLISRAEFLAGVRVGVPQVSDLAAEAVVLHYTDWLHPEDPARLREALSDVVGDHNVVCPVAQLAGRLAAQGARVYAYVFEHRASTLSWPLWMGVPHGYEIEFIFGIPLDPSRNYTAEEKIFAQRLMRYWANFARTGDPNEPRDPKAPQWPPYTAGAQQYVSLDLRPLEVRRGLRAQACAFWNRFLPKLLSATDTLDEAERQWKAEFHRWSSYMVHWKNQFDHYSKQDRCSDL
Chain of Sodium-dependent noradrenaline transporter (P23975 whole entry): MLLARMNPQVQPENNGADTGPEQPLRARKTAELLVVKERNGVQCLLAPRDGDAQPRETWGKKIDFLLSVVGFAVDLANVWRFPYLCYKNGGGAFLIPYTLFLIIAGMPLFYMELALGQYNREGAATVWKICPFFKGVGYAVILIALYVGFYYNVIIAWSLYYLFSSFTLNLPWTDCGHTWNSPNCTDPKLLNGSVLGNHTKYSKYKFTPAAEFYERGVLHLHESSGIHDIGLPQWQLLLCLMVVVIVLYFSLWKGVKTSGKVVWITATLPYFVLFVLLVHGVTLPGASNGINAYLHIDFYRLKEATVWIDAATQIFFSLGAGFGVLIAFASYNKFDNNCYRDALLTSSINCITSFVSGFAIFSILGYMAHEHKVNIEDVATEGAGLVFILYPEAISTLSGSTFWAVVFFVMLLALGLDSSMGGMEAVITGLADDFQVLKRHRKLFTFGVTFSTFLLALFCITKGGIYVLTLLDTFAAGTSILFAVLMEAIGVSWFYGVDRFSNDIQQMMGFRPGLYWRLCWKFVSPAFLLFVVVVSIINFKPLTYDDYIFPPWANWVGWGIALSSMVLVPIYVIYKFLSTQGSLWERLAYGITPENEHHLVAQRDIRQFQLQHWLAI
Chain of D(1A) dopamine receptor (P21728 whole entry): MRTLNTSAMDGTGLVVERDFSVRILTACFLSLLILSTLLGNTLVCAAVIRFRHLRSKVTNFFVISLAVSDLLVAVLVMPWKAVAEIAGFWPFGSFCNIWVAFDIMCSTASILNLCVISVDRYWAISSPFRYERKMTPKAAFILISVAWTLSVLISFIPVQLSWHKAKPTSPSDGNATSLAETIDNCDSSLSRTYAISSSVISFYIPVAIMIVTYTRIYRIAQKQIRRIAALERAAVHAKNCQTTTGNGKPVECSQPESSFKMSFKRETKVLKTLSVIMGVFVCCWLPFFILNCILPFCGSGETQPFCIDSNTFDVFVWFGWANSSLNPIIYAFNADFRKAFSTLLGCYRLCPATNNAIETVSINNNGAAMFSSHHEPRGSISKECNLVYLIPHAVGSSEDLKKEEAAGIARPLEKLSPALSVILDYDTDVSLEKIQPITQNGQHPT
Chain of Prostaglandin G/H synthase 1 (P23219 whole entry): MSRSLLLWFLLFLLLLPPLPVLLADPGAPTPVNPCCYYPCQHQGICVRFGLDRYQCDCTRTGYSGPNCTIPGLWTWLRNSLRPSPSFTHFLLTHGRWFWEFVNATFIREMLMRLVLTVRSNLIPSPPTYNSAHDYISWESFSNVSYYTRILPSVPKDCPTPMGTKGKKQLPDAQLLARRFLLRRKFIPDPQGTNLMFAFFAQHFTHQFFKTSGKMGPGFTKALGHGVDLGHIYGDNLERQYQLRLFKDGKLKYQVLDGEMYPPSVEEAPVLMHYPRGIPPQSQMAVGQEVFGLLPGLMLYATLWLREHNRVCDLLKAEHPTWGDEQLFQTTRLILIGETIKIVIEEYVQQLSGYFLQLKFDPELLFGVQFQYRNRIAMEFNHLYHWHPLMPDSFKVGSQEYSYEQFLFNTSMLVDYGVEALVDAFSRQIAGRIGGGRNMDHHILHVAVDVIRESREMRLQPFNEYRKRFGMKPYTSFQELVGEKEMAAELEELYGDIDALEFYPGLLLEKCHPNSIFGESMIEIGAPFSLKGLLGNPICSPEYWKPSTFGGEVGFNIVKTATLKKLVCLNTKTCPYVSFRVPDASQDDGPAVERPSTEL

For the molecule `C[C@H]1O[C@@H](n2cc(F)c(=O)[nH]c2=O)[C@H](O)[C@@H]1O` [DOXIFLURIDINE], the AC50 (on Progesterone receptor; at Histamine H3 receptor; in [1]; in [2]; at Thromboxane A2 receptor [3]; in test [4]) was greater than 30 µM throughout. The AC50 (in [5]; in test [6]; on Acetylcholinesterase; on D(3) dopamine receptor; in [7]; at D(1A) dopamine receptor) was greater than 30 µM throughout. Also, the AC50 (in test [8]; on Thromboxane A2 receptor [9]) was greater than 30 µM each time.

Regarding `C#C[C@]1(O)CC[C@H]2[C@@H]3CCC4=CC(=O)CC[C@@H]4[C@H]3C(=C)C[C@@]21CC` [ETONOGESTREL], the AC50 on Progesterone receptor was 0.003 µM; at Histamine H3 receptor, greater than 30 µM; in [1], greater than 30 µM; in test [2], greater than 30 µM; on Thromboxane A2 receptor [3], greater than 30 µM; in test [4], greater than 30 µM. Moreover, the AC50 (in test [5]; in test [6]; at Acetylcholinesterase; on D(3) dopamine receptor; in [7]; on D(1A) dopamine receptor) was greater than 30 µM throughout. For the same molecule, the AC50 (in test [8]; on Thromboxane A2 receptor [9]) was greater than 30 µM in each case.

Consider `CCc1nc(C(N)=O)c(Nc2ccc(N3CCC(N4CCN(C)CC4)CC3)c(OC)c2)nc1NC1CCOCC1` [GILTERITINIB], for which the AC50 at Progesterone receptor was greater than 30 µM; at Histamine H3 receptor, 13.7 µM; in test [1], greater than 30 µM; in [2] it was greater than 30 µM; on Thromboxane A2 receptor [3] it was greater than 0.3 µM; in test [4], greater than 30 µM. The AC50 in test [5] was 2.44 µM; in [6] it was greater than 30 µM; at Acetylcholinesterase, greater than 30 µM; at D(3) dopamine receptor, 26.7 µM; in test [7], greater than 30 µM; on D(1A) dopamine receptor it was greater than 30 µM. Moreover, the AC50 (in test [8]; at Thromboxane A2 receptor [9]) was greater than 30 µM each time.

As for `O=C(O)CO` [GLYCOLIC ACID], the concentration at half-maximal activity (AC50) (on Progesterone receptor; at Histamine H3 receptor; in [1]; in test [2]; at Thromboxane A2 receptor [3]; in test [4]) was greater than 30 µM in each case. Further, the AC50 (in test [5]; in [6]; at Acetylcholinesterase; at D(3) dopamine receptor; in test [7]; at D(1A) dopamine receptor) was greater than 30 µM in each case. Further, the AC50 (in [8]; on Thromboxane A2 receptor [9]) was greater than 30 µM throughout.

For `CC[C@H](c1ccc(O)cc1)[C@@H](CC)c1ccc(O)cc1` [HEXESTROL], the AC50 is 1.85 µM on Progesterone receptor; greater than 30 µM at Histamine H3 receptor; greater than 30 µM in test [1]; 8.77 µM in test [2]; greater than 3 µM at Thromboxane A2 receptor [3]; greater than 30 µM in test [4]. Further, the AC50 in test [5] is greater than 30 µM; in test [6] it was greater than 30 µM; on Acetylcholinesterase, greater than 30 µM; on D(3) dopamine receptor, 17.5 µM; in test [7], 16.4 µM; at D(1A) dopamine receptor, 15.5 µM. The AC50 in test [8] is greater than 30 µM; on Thromboxane A2 receptor [9], 21 µM.

`O=C1/C(=C2\Nc3ccc(S(=O)(=O)O)cc3C2=O)Nc2ccc(S(=O)(=O)O)cc21` [INDIGOTINDISULFONATE]: the AC50 (at Progesterone receptor; at Histamine H3 receptor; in test [1]; in test [2]; at Thromboxane A2 receptor [3]; in test [4]) was greater than 30 µM in each case. In addition, the AC50 (in [5]; in test [6]; on Acetylcholinesterase; at D(3) dopamine receptor; in [7]; on D(1A) dopamine receptor) was greater than 30 µM throughout. In addition, the AC50 (in [8]; at Thromboxane A2 receptor [9]) was greater than 30 µM in each case.

For `OC[C@H]1O[C@@H](c2ccc(F)c(Cc3cc4ccccc4s3)c2)[C@H](O)[C@@H](O)[C@@H]1O` [IPRAGLIFLOZIN], the AC50 (at Progesterone receptor; at Histamine H3 receptor; in test [1]; in test [2]; on Thromboxane A2 receptor [3]; in test [4]) was greater than 30 µM throughout. For the same molecule, the AC50 (in test [5]; in test [6]; at Acetylcholinesterase; at D(3) dopamine receptor; in [7]; at D(1A) dopamine receptor) was greater than 30 µM throughout. The AC50 (in test [8]; on Thromboxane A2 receptor [9]) was greater than 30 µM in each case.

As to `C=CCN1CC[C@]23CCCC[C@H]2[C@H]1Cc1ccc(O)cc13` [LEVALLORPHAN], the AC50 on Progesterone receptor is greater than 30 µM; at Histamine H3 receptor, greater than 30 µM; in test [1], 27.6 µM; in test [2] it was greater than 30 µM; at Thromboxane A2 receptor [3] it was greater than 30 µM; in test [4], greater than 30 µM. Besides, the AC50 was greater than 30 µM in test [5]; greater than 30 µM in [6]; 16.7 µM on Acetylcholinesterase; 23.4 µM on D(3) dopamine receptor; 8.54 µM in test [7]; greater than 30 µM at D(1A) dopamine receptor. The AC50 (in test [8]; at Thromboxane A2 receptor [9]) was greater than 30 µM in each case.

Consider `CN(CC1(C)CCCO1)S(=O)(=O)c1ccc(Cl)c(S(N)(=O)=O)c1` (stereo unspecified) [MEFRUSIDE], for which the AC50 (on Progesterone receptor; at Histamine H3 receptor; in [1]; in test [2]; on Thromboxane A2 receptor [3]; in [4]) was greater than 30 µM each time. For the same molecule, the AC50 (in test [5]; in test [6]; at Acetylcholinesterase; at D(3) dopamine receptor; in [7]; on D(1A) dopamine receptor) was greater than 30 µM each time. Further, the AC50 (in [8]; at Thromboxane A2 receptor [9]) was greater than 30 µM throughout.

One may read the AC50 as the concentration at which the activity in the assay is half-maximal.

These data come from ChEMBL document CHEMBL5291721, “A preclinical secondary pharmacology resource illuminates target-adverse drug reaction associations of marketed drugs” (Nat Commun, 2023).
